The values that follow come from patent publication US11173151B2, “Substituted triazole derivatives and uses thereof” (BAYER AKTIENGESELLSCHAFT, priority 2017, dated 2021).

One assay has as its target T1, human V1a receptor (Homo sapiens, UniProt P37288).
T1 construct: expressed in transfected cells; host or cells: CHO K1 (ATCC), also stably transfected with a modified aequorin
Kind of assay: Cellular in vitro assay for determining vasopressin receptor activity, V1a receptor cell line (CHO, aequorin luminescence). The class given is cell-based. The note with it: for IC50: CHO cell line transfected with human V1a receptor, [Arg]-vasopressin at EC50 concentration, read-out: IC50 hV1a; for ratio IC50 hV2/hV1a: selectivity ratio IC50 hV2 / IC50 hV1a. Put shortly: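 CHO K1/aequorin cells, coelenterazine 5 μg/ml o/n; cpd 10 min; [Arg]-vasopressin at EC50; luminescence read immediately; IC50.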

The next assay has as its target T2, human V2 receptor (Homo sapiens, UniProt P30518).
T2 construct: expressed in transfected cells; host or cells: CHO K1 (ATCC) expressing firefly luciferase under a CRE-responsive promoter
Put plainly: Cellular in vitro assay for determining vasopressin receptor activity, V2 receptor cell line (CHO, CRE-luciferase). As to conditions: CHO cell line transfected with human V2 receptor; [Arg8]-vasopressin at EC50 concentration, 3 hours; read-out: IC50 hV2. Type of assay: cell-based.

T2 sequence (P30518 whole entry): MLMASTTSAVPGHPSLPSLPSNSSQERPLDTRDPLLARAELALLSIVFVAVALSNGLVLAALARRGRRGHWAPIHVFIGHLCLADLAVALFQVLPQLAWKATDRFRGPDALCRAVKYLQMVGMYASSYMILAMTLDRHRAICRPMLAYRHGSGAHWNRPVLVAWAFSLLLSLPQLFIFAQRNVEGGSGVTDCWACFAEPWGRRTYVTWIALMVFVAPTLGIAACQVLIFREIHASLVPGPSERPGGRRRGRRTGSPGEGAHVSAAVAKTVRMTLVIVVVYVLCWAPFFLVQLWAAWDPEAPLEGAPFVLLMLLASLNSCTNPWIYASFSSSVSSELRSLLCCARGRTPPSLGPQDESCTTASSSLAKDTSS
T1 sequence (P37288 whole entry): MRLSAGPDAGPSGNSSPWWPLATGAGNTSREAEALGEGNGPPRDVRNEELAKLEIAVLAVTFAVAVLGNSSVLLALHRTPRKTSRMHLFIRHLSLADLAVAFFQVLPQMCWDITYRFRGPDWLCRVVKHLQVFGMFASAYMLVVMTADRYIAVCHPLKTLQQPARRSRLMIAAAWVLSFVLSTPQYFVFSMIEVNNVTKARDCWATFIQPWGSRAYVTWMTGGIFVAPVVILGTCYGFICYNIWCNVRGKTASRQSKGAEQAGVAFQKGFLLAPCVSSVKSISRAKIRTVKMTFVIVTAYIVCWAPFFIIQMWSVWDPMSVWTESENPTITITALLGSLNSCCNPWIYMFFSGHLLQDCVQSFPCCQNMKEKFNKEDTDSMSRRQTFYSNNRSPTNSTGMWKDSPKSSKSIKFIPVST

Turning to `O=C(CC1CCCO1)Nc1ncccc1-n1cnc(Cn2nc(-c3ccc(Cl)cc3)n(C[C@H](O)C(F)(F)F)c2=O)n1` (some centres unmarked) [Example 141], at human V1a receptor, the IC50 was found to be 0.032 µM and the “ratio IC50 hV2/hV1a” value worked out at 33.3. In addition, the 50% inhibitory concentration (IC50) on human V2 receptor stood at 1.06 µM.

On to `CC1=NOC(C)(C(=O)Nc2ncccc2-n2cnc(Cn3nc(-c4ccc(Cl)cc4)n(C[C@H](O)C(F)(F)F)c3=O)n2)C1` (some centres unmarked) [Example 142], for which, at human V1a receptor, the IC50 is 0.1 µM and the “ratio IC50 hV2/hV1a” value came to 24.0. Further, the IC50 at human V2 receptor came to 2.4 µM.

In the case of `O=C(Nc1ncccc1-n1cnc(Cn2nc(-c3ccc(Cl)cc3)n(C[C@H](O)C(F)(F)F)c2=O)n1)c1ccncn1` [Example 143], the IC50 on human V1a receptor was 0.015 µM; on human V2 receptor, 1.12 µM. In addition, the “ratio IC50 hV2/hV1a” value at human V1a receptor stood at 74.7.

Regarding `C=CC(C)C(=O)Nc1ncccc1-n1cnc(Cn2nc(-c3ccc(Cl)cc3)n(C[C@H](O)C(F)(F)F)c2=O)n1` (some centres unmarked) [Example 144], on human V1a receptor, the IC50 worked out at 0.185 µM and the “ratio IC50 hV2/hV1a” value is recorded as 10.3. The IC50 on human V2 receptor amounted to 1.9 µM.

Turning to `CC(C)(O)C(=O)Nc1ncccc1-n1cnc(Cn2nc(-c3ccc(Cl)cc3)n(C[C@H](O)C(F)(F)F)c2=O)n1` [Example 145], on human V1a receptor, the IC50 came out at 0.125 µM and the “ratio IC50 hV2/hV1a” value is 8.1. The IC50 on human V2 receptor was 1.01 µM.

As to `CCCC(=O)Nc1ncccc1-n1cnc(Cn2nc(-c3ccc(Cl)cc3)n(C[C@H](O)C(F)(F)F)c2=O)n1` [Example 146], on human V1a receptor, the IC50 stood at 0.056 µM and the “ratio IC50 hV2/hV1a” value is given as 9.9. On human V2 receptor, the IC50 came out at 0.555 µM.

Consider `CCC(=O)Nc1ncccc1-n1cnc(Cn2nc(-c3ccc(Cl)cc3)n(C[C@H](O)C(F)(F)F)c2=O)n1` [Example 147], for which, on human V1a receptor, the IC50 came out at 0.305 µM and the “ratio IC50 hV2/hV1a” value is recorded as 3.1. In addition, on human V2 receptor, the IC50 was determined as 0.94 µM.

As to `CC(C)CC(=O)Nc1ncccc1-n1cnc(Cn2nc(-c3ccc(Cl)cc3)n(C[C@H](O)C(F)(F)F)c2=O)n1` [Example 148], the IC50 worked out at 0.019 µM at human V1a receptor and 0.255 µM at human V2 receptor. Moreover, the “ratio IC50 hV2/hV1a” value on human V1a receptor is given as 13.4.

As for `CSCC(=O)Nc1ncccc1-n1cnc(Cn2nc(-c3ccc(Cl)cc3)n(C[C@H](O)C(F)(F)F)c2=O)n1` [Example 149], on human V1a receptor, the IC50 is 0.0124 µM and the “ratio IC50 hV2/hV1a” value is 153.2. Also, the IC50 on human V2 receptor amounted to 1.9 µM.

As for `O=C(CC1CCCC1)Nc1ncccc1-n1cnc(Cn2nc(-c3ccc(Cl)cc3)n(C[C@H](O)C(F)(F)F)c2=O)n1` [Example 150], at human V1a receptor, the IC50 stood at 0.0545 µM and the “ratio IC50 hV2/hV1a” value is on record as 44.0. The IC50 on human V2 receptor is 2.4 µM.

Turning to `CC(C)C(=O)Nc1ncccc1-n1cnc(Cn2nc(-c3ccc(Cl)cc3)n(C[C@H](O)C(F)(F)F)c2=O)n1` [Example 151], at human V1a receptor, the IC50 was determined as 0.098 µM and the “ratio IC50 hV2/hV1a” value is 6.8. Also, the IC50 on human V2 receptor turned out to be 0.665 µM.

Consider `C=CCC(=O)Nc1ncccc1-n1cnc(Cn2nc(-c3ccc(Cl)cc3)n(C[C@H](O)C(F)(F)F)c2=O)n1` [Example 152], for which, on human V1a receptor, the IC50 amounted to 0.065 µM and the “ratio IC50 hV2/hV1a” value stood at 20.8. In addition, the IC50 on human V2 receptor turned out to be 1.35 µM.

As to `N#Cc1cccc(C(=O)Nc2ncccc2-n2cnc(Cn3nc(-c4ccc(Cl)cc4)n(C[C@H](O)C(F)(F)F)c3=O)n2)c1` [Example 153], at human V1a receptor, the IC50 turned out to be 0.41 µM and the “ratio IC50 hV2/hV1a” value worked out at 42.2. In addition, the IC50 at human V2 receptor amounted to 17.3 µM.

For `CC1(C(=O)Nc2ncccc2-n2cnc(Cn3nc(-c4ccc(Cl)cc4)n(C[C@H](O)C(F)(F)F)c3=O)n2)CC1` [Example 154], at human V1a receptor, the IC50 was found to be 0.00675 µM and the “ratio IC50 hV2/hV1a” value is on record as 325.9. Moreover, at human V2 receptor, the IC50 was found to be 2.2 µM.

Regarding `CC(C(=O)Nc1ncccc1-n1cnc(Cn2nc(-c3ccc(Cl)cc3)n(C[C@H](O)C(F)(F)F)c2=O)n1)n1cncn1` (some centres unmarked) [Example 155], on human V1a receptor, the IC50 was 0.039 µM and the “ratio IC50 hV2/hV1a” value worked out at 50.0. Also, the IC50 on human V2 receptor is 1.95 µM.

For the compound `O=C(Nc1ncccc1-n1cnc(Cn2nc(-c3ccc(Cl)cc3)n(C[C@H](O)C(F)(F)F)c2=O)n1)C1CCCCCC1` [Example 156], at human V1a receptor, the IC50 came to 0.066 µM and the “ratio IC50 hV2/hV1a” value came to 20.5. Further, the IC50 at human V2 receptor stood at 1.35 µM.

`O=C(Nc1ncccc1-n1cnc(Cn2nc(-c3ccc(Cl)cc3)n(C[C@H](O)C(F)(F)F)c2=O)n1)c1ccncc1` [Example 157]: the results for the IC50 on human V1a receptor and at human V2 receptor were 0.00355 µM and 3.05 µM, respectively. For the same compound, the “ratio IC50 hV2/hV1a” value at human V1a receptor is listed as 859.2.

For `CC(C)(C)CC(=O)Nc1ncccc1-n1cnc(Cn2nc(-c3ccc(Cl)cc3)n(C[C@H](O)C(F)(F)F)c2=O)n1` [Example 158], the IC50 at human V1a receptor was 0.0106 µM; on human V2 receptor, 3.8 µM. In addition, the “ratio IC50 hV2/hV1a” value on human V1a receptor came out at 360.2.

Regarding `O=C(Nc1ncccc1-n1cnc(Cn2nc(-c3ccc(Cl)cc3)n(C[C@H](O)C(F)(F)F)c2=O)n1)C1CCCCC1` [Example 159], at human V1a receptor, the IC50 worked out at 0.0525 µM and the “ratio IC50 hV2/hV1a” value is given as 35.2. At human V2 receptor, the IC50 is 1.85 µM.

In the case of `Cc1cc(C(=O)Nc2ncccc2-n2cnc(Cn3nc(-c4ccc(Cl)cc4)n(C[C@H](O)C(F)(F)F)c3=O)n2)no1` [Example 161], the figures for the IC50 on human V1a receptor and on human V2 receptor were 0.0265 µM and 0.5 µM, respectively. At human V1a receptor, the “ratio IC50 hV2/hV1a” value was 18.9.

As to `Cc1cccc(C(=O)Nc2ncccc2-n2cnc(Cn3nc(-c4ccc(Cl)cc4)n(C[C@H](O)C(F)(F)F)c3=O)n2)c1` [Example 162], on human V1a receptor, the IC50 turned out to be 0.3 µM and the “ratio IC50 hV2/hV1a” value is recorded as 24.0. Moreover, the IC50 on human V2 receptor turned out to be 7.2 µM.

Regarding `O=C(Nc1ncccc1-n1cnc(Cn2nc(-c3ccc(Cl)cc3)n(C[C@H](O)C(F)(F)F)c2=O)n1)c1ccno1` [Example 163], on human V1a receptor, the IC50 worked out at 0.028 µM and the “ratio IC50 hV2/hV1a” value is on record as 46.4. The IC50 on human V2 receptor is 1.3 µM.

Turning to `Cc1cn(CC(=O)Nc2ncccc2-n2cnc(Cn3nc(-c4ccc(Cl)cc4)n(C[C@H](O)C(F)(F)F)c3=O)n2)nn1` [Example 164], the IC50 at human V1a receptor was 0.66 µM; at human V2 receptor, 1.3 µM. Further, the “ratio IC50 hV2/hV1a” value at human V1a receptor came out at 2.0.

As to `O=C(CC1CCCCO1)Nc1ncccc1-n1cnc(Cn2nc(-c3ccc(Cl)cc3)n(C[C@H](O)C(F)(F)F)c2=O)n1` (some centres unmarked) [Example 165], the IC50 on human V1a receptor came to 0.066 µM; at human V2 receptor, 0.635 µM. Also, at human V1a receptor, the “ratio IC50 hV2/hV1a” value amounted to 9.6.

`O=C(Nc1ncccc1-n1cnc(Cn2nc(-c3ccc(Cl)cc3)n(C[C@H](O)C(F)(F)F)c2=O)n1)C1CCCCO1` (some centres unmarked) [Example 166]: on human V1a receptor, the IC50 was found to be 0.039 µM and the “ratio IC50 hV2/hV1a” value was 51.3. Besides, the IC50 on human V2 receptor was 2 µM.

In the case of `O=C(Nc1ncccc1-n1cnc(Cn2nc(-c3ccc(Cl)cc3)n(C[C@H](O)C(F)(F)F)c2=O)n1)OCC(F)(F)F` [Example 167, 2,2,2-Trifluoroethyl {3-[3-({3-(4-chlorophenyl)-5-oxo-4-[(2S)-3,3,3-trifluoro-2-hydroxypropyl]-4,5-dihydro-1H-1,2,4-triazol-1-yl}methyl)-1H-1,2,4-triazol-1-yl]pyridin-2-yl}carbamate], on human V1a receptor, the IC50 was determined as 0.0193 µM and the “ratio IC50 hV2/hV1a” value is listed as 64.7. In addition, the IC50 at human V2 receptor stood at 1.25 µM.

As to `O=C(NCC(F)(F)F)c1ccccc1-n1cnc(Cn2nc(-c3ccc(Cl)cc3)n(C[C@@H](O)C(F)(F)F)c2=O)n1` [Example 168, 2-[3-({3-(4-Chlorophenyl)-5-oxo-4-[(2R)-3,3,3-trifluoro-2-hydroxypropyl]-4,5-dihydro-1H-1,2,4-triazol-1-yl}methyl)-1H-1,2,4-triazol-1-yl]-N-(2,2,2-trifluoroethyl)benzamide], the values for the IC50 at human V1a receptor and at human V2 receptor were 0.0285 µM and 1.54 µM, respectively. Moreover, the “ratio IC50 hV2/hV1a” value at human V1a receptor is 54.1.

In the case of `CNC(=O)c1ccccc1-n1cnc(Cn2nc(-c3ccc(Cl)cc3)n(C[C@H](O)C(F)(F)F)c2=O)n1` [Example 169, 2-[3-({3-(4-Chlorophenyl)-5-oxo-4-[(2S)-3,3,3-trifluoro-2-hydroxypropyl]-4,5-dihydro-1H-1,2,4-triazol-1-yl}methyl)-1H-1,2,4-triazol-1-yl]-N-methylbenzamide], the results for the IC50 at human V1a receptor and at human V2 receptor were 0.00236 µM and 0.28 µM, respectively. Also, the “ratio IC50 hV2/hV1a” value on human V1a receptor was 118.5.

Consider `O=C1CN(C(=O)c2ccccc2-n2cnc(Cn3nc(-c4ccc(Cl)cc4)n(C[C@H](O)C(F)(F)F)c3=O)n2)CCN1` [Example 171, 4-{2-[3-({3-(4-Chlorophenyl)-5-oxo-4-[(2S)-3,3,3-trifluoro-2-hydroxypropyl]-4,5-dihydro-1H-1,2,4-triazol-1-yl}methyl)-1H-1,2,4-triazol-1-yl]benzoyl}piperazin-2-one], for which the values for the IC50 on human V1a receptor and on human V2 receptor were 0.139 µM and 7.35 µM, respectively. Moreover, the “ratio IC50 hV2/hV1a” value at human V1a receptor came to 52.8.

For the compound `O=C(c1ccccc1-n1cnc(Cn2nc(-c3ccc(Cl)cc3)n(C[C@H](O)C(F)(F)F)c2=O)n1)N1CCOCC1` [Example 172, 5-(4-Chlorophenyl)-2-({1-[2-(morpholin-4-ylcarbonyl)phenyl]-1H-1,2,4-triazol-3-yl}methyl)-4-[(2S)-3,3,3-trifluoro-2-hydroxypropyl]-2,4-dihydro-3H-1,2,4-triazol-3-one], the IC50 at human V1a receptor amounted to 0.00325 µM; at human V2 receptor it was 2.12 µM.

Regarding `CC(C)(N)CNC(=O)c1ccccc1-n1cnc(Cn2nc(-c3ccc(Cl)cc3)n(C[C@H](O)C(F)(F)F)c2=O)n1` [Example 173, N-(2-Amino-2-methylpropyl)-2-[3-({3-(4-chlorophenyl)-5-oxo-4-[(2S)-3,3,3-trifluoro-2-hydroxypropyl]-4,5-dihydro-1H-1,2,4-triazol-1-yl}methyl)-1H-1,2,4-triazol-1-yl]benzamide], on human V1a receptor, the IC50 was 0.00428 µM and the “ratio IC50 hV2/hV1a” value is given as 608.2. At human V2 receptor, the concentration for half-maximal inhibition (IC50) was determined as 2.61 µM.

By IC50 is commonly meant the concentration that inhibits the measured activity by half.
